According to ChEMBL document CHEMBL2401684, “Synthesis and evaluation of a conditionally-silent agonist for the α7 nicotinic acetylcholine receptor” (Bioorg Med Chem Lett, 2013):
Calls of active or inactive are those of the source. The calls are words filed in the database; no cut-off is given here.

Experiments:
[1] = biological target: T1, Neuronal acetylcholine receptor subunit alpha-7 (Homo sapiens, UniProt P36544); experiment: Silent agonist activity at human alpha7 nAChR expressed in Xenopus laevis oocytes assessed as induction of PNU-120596-stimulated peak current; type: cell-based, Oocyte
T1 sequence (P36544 whole entry): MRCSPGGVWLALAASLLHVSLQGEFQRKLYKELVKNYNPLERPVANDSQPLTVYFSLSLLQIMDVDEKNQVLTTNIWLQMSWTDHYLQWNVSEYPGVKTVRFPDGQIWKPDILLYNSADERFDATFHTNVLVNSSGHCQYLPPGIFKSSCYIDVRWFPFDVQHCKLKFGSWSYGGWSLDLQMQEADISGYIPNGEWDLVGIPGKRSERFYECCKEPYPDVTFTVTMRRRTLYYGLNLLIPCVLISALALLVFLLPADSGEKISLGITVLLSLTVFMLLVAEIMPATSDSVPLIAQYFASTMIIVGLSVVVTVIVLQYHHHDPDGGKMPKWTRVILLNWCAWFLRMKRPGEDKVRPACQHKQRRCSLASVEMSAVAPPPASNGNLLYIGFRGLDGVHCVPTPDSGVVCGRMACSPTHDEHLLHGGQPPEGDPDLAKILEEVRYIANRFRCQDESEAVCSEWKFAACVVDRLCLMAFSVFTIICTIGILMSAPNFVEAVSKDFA

[2] = biological target: T1, Neuronal acetylcholine receptor subunit alpha-7; experiment: Silent agonist activity at human alpha7 nAChR expressed in Xenopus laevis oocytes assessed as induction of PNU-120596-stimulated peak current in presence of methyllycaconitine; type: cell-based; conditions: Oocyte
[3] = biological target: T1, Neuronal acetylcholine receptor subunit alpha-7; experiment: Agonist activity at human alpha7 nAChR expressed in Xenopus laevis oocytes assessed as induction of peak current at 100 uM; type: cell-based; conditions: Oocyte
[4] = biological target: T1, Neuronal acetylcholine receptor subunit alpha-7; experiment: Antagonist activity at human alpha7 nAChR expressed in Xenopus laevis oocytes assessed as reduction of acetylcholine-induced peak current at 100 uM; type: cell-based; conditions: Oocyte
[5] = biological target: T1, Neuronal acetylcholine receptor subunit alpha-7; experiment: Silent agonist activity at human alpha7 nAChR expressed in Xenopus laevis oocytes assessed as induction of PNU-120596-stimulated peak current at 100 uM; type: cell-based; conditions: Oocyte
[6] = biological target: T1, Neuronal acetylcholine receptor subunit alpha-7; experiment: Silent agonist activity at human alpha7 nAChR expressed in Xenopus laevis oocytes assessed as induction of TQS-stimulated peak current; type: cell-based; conditions: Oocyte
[7] = biological target: T1, Neuronal acetylcholine receptor subunit alpha-7; experiment: Agonist activity at human alpha7 nAChR expressed in Xenopus laevis oocytes assessed as induction of acetylcholine-stimulated peak inward current by two-electrode voltage clamp assay; type: cell-based; conditions: Oocyte
[8] = biological target: Neuronal acetylcholine receptor subunit alpha-7 (Rattus norvegicus) (UniProt Q05941); experiment: Agonist activity at rat alpha7 nAChR expressed in Xenopus laevis oocytes assessed as induction of acetylcholine-stimulated peak inward current by two-electrode voltage clamp assay; type: cell-based; conditions: Oocyte
Neuronal acetylcholine receptor subunit alpha-7 (Rattus norvegicus), sequence (Q05941 whole entry): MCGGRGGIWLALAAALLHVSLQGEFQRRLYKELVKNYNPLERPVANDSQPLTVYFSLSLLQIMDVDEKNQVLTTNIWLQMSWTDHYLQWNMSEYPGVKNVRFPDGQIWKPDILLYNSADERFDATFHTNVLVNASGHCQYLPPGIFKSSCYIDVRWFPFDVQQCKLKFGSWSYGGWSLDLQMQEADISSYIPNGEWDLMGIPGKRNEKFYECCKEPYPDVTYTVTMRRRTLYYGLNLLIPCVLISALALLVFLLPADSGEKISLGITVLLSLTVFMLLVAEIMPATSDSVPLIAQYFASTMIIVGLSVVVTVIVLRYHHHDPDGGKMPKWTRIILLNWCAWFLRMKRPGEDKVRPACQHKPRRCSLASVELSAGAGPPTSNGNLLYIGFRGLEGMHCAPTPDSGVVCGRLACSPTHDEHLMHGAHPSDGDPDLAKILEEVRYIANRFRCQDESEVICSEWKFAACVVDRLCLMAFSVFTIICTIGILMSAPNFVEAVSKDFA

Structure (SMILES) | IC50 [1] [µM] | Activity [2] | Activity [3] | Activity [4] | Activity [5] | Activity [6] | Activity [7] [%] | Activity [8] [%]
c1ccc(-c2cncc(C3=NCCCC3)c2)cc1 | 41 | inactive | inactive | Active | Active | Active | – | –
O=C(c1ccc(-c2cccc(C(F)(F)F)c2)o1)N1CCN2CCC1CC2 | – | – | – | – | – | – | < 2 | < 2
